Assay results as given in patent US9180135B2, “Miliacin and sphingolipids and/or phospholipids composition for hair and scalp care” (HITEX, priority 2013, dated 2015).

System: hair bulb root cells (keratinocytes)
Test: In vitro test: cellular proliferation of root cells (keratinocytes) in cultured human scalp fragments, anti-Ki67 immunohistochemistry
Type: cell-based
Conditions: cultures stopped on D4, 1.7 μg/ml of miliacin, Ki67-positive cells
Procedure: This test consists of studying the cellular proliferation of root cells (keratinocytes). Indeed, as mentioned above, cellular proliferation at the hair bulb matrix promotes hair growth.
Composition A: 1.7 μg/ml of miliacin
Composition B: 150 μg/ml of the composition disclosed herein, Keranat, comprising: • 1.7 μg/ml of miliacin (1.1% of mixture) • 0.30 μg/ml of glycosylceramides and ceramides (0.21% of mixture) • 1.2 μg/ml of phospholipids (0.8% of mixture) Methodology
Human scalp fragments were obtained in plastic surgery from twelve different donors from the occipital area prior to hair implantation. They were deposited in inserts, in turn placed in culture wells. Culture medium specifically suitable for maintaining survival conditions (antibiotic, foetal calf serum (FCS)) was added to the bottom of the wells, running a passage by slow diffusion between the two compartments via a 3 μm thick porous membrane.
The composition is added in dilution at a predetermined dose, in the culture medium to promote contact with the hair bulbs. […]
The root proliferation was analysed by means of immunohistochemistry using an anti-Ki67 antibody marker of phase M, S, G1 and G2 cells in the cell cycle (mouse monoclonal antibody, MIB1 clone, diluted to 1:300, marketed by Dako). […]
On each bulb, the number of positive cells is counted with respect to a total of approximately 100 cells. […]

Substance: miliacin [Composition A]
- Results (% of proliferating cells compared to control): +92%
- Results (% of proliferating cells compared to control) (listed as millet oil alone): 92%
